Legend:
Tyk2 = target: T1, Tyk2 (Homo sapiens, UniProt P29597); experiment: Biochemical Tyk2 kinase assay (LanthaScreen); details: read-out: Tyk 2 (pKi) (converted)
T1 construct: GST; purchased Life Technologies
Description: (§1) Assay 1: Biochemical JAK and Tyk2 Kinase Assays A panel of four LanthaScreen JAK biochemical assays (JAK1, 2, 3 and Tyk2) were carried in a common kinase reaction buffer (50 mM HEPES, pH 7.5, 0.01% Brij-35, 10 mM MgCl2, and 1 mM EGTA). Recombinant GST-tagged JAK enzymes and a GFP-tagged STAT1 peptide substrate were obtained from Life Technologies. Serially or discretely diluted compounds were pre-incubated with each of the four JAK enzymes and the substrate in white 384-well microplates (Corning) at ambient temperature for 1 h. ATP was subsequently added to initiate the kinase reactions in 10 μL total volume, with 1% DMSO. […] The plates were allowed to incubate at ambient temperature for 1 h before being read on the EnVision reader (Perkin Elmer). Emission ratio signals (520 nm/495 nm) were recorded and utilized to calculate the percent inhibition values based on DMSO and background controls. For dose-response analysis, percent inhibition data were plotted vs. compound concentrations, and IC50 values were determined from a 4-parameter robust fit model with the Prism software (GraphPad Software). Results were expressed as pIC50 (negative logarithm of IC50) and subsequently converted to pKi (negative logarithm of dissociation constant, Ki) using the Cheng-Prusoff equation.

[1] = test system: BEAS-2B human lung epithelial cells; assay type: cell-based; details: 48 h
Description: Assay 3: Cytotoxicity Assay A CellTiter-Glo luminescent cell viability/cytotoxicity assay was carried out in BEAS-2B human lung epithelial cells (ATCC) under the normal growth condition. […] On day 1 of the assay, cells were seeded at a 500 cells/well density in white 384-well tissue culture plates (Corning) with 25 μL medium, and were allowed to adhere overnight in the incubator. On day 2 of the assay, 5 μL of medium containing dose-responses of test compounds was added, and incubated at 37° C. for 48 h. 30 μL of CellTiter-Glo detection solution (Promega) was subsequently added, mixed on an orbital shaker for 5 min, and incubated for additional 10 min before being read on the EnVision reader. Luminescence signals were recorded and percent DMSO control values were calculated. For dose-response analysis, percent DMSO control data were plotted vs. compound concentrations to derive dose-response curves by line connecting each data point. […] Results were expressed as the negative logarithm of the CC15 value, pCC15. […] The pCC15 for compound (I) was 5.36.

JAK2 = target: T2, JAK2 (Homo sapiens, UniProt O60674); experiment: Biochemical JAK kinase assay (LanthaScreen), JAK2; details: converted from pIC50 by Cheng-Prusoff; ATP at Km 3 μM; read-out: JAK 2 (pKi) (converted)
T2 construct: GST; purchased Life Technologies
Description: as §1

[2] = Assay 9: skin tissue concentration in mice; assay type: in vivo; details: Balb/c, mouse, topical ointment 25 μl/cm^2, biopsy one hour after IL-31
Excerpt: The JAK/STAT (janus kinase/signal transducer and activator of transcription) signaling pathway is a key element in the communication between immune cells and is mainly activated through cytokine receptors. Binding of cytokine IL-31 leads to the activation and phosphorylation of JAK1/JAK2 tyrosine kinases which in turn leads to the phosphorylation of STAT3 (pSTAT3). The activated STAT then translocates into the nucleus and directly regulates the transcription of cytokine-sensitive genes. In these studies, Balb/c mice were dosed with an ointment formulation of compound (I). Ointment vehicle (Table 9) or compound (I) formulated in the ointment vehicle was applied topically to shaved skin (25 μl/cm^2) 30 minutes before the intradermal injection (50 μl/1×1 cm2 site) of IL-31 (1 μg/ml) at a 1×1 cm^2 shaved area of skin on the back between the ears. One hour after IL-31, skin biopsies were collected. The tissue samples were flash frozen and analyzed for pSTAT3 by ELISA and compound concentration. Compound (I) inhibited pSTAT3 production by 80% and the skin tissue concentration of compound (I) was 62 μM.

[3] = test system: IL-22 suppressed Filaggrin expression; experiment: Assay 15: recovery of IL-22 suppressed Filaggrin in normal human epidermal keratinocytes; assay type: cell-based; details: IL-22 50 ng/mL, 4 days
Description: Assay 15: Recovery of IL-22 Suppressed Filaggrin in Normal Human Epidermal Keratinocytes
IL-22 is known to inhibit the expression of terminal differentiation genes, such as Filaggrin. The recovery level of test compound for interleukin-22 (IL-22) suppressed Filaggrin expression was measured in the normal human epidermal keratinocytes (ATCC) using real-time PCR.
Primary epidermal keratinocytes were cultured in a 37° C., 5% CO2 humidified incubator in dermal cell basal medium (ATCC) supplemented with keratinocyte growth kit (ATCC) and 1× Pen/Strep (Life Technologies). Cells were seeded at 5,000 cells/well in BioCoat 96-well plates (Corning) with 100 μl and incubated at 37° C., 5% CO2 for 3 to 4 days till 100% confluency. Then, the medium was removed and replaced with 150 μL of medium containing does-response of test compounds. Compounds were serially diluted in DMSO and then diluted another 1000-fold in media to bring the final DMSO concentration to 0.1%. On day 1 of the assay, cells were incubated with test compounds at 37° C. for 1 h, and followed by the addition of followed by the addition of IL-22 (R&D Systems; final concentration 50 ng/mL) in pre-warmed media (50 μL) for 4 days. […] Fluorescence signals were captured after each cycle. Comparative CT method was used to quantify gene expression with cells without IL-22 and test compounds as baseline control.

T1 sequence (P29597 whole entry): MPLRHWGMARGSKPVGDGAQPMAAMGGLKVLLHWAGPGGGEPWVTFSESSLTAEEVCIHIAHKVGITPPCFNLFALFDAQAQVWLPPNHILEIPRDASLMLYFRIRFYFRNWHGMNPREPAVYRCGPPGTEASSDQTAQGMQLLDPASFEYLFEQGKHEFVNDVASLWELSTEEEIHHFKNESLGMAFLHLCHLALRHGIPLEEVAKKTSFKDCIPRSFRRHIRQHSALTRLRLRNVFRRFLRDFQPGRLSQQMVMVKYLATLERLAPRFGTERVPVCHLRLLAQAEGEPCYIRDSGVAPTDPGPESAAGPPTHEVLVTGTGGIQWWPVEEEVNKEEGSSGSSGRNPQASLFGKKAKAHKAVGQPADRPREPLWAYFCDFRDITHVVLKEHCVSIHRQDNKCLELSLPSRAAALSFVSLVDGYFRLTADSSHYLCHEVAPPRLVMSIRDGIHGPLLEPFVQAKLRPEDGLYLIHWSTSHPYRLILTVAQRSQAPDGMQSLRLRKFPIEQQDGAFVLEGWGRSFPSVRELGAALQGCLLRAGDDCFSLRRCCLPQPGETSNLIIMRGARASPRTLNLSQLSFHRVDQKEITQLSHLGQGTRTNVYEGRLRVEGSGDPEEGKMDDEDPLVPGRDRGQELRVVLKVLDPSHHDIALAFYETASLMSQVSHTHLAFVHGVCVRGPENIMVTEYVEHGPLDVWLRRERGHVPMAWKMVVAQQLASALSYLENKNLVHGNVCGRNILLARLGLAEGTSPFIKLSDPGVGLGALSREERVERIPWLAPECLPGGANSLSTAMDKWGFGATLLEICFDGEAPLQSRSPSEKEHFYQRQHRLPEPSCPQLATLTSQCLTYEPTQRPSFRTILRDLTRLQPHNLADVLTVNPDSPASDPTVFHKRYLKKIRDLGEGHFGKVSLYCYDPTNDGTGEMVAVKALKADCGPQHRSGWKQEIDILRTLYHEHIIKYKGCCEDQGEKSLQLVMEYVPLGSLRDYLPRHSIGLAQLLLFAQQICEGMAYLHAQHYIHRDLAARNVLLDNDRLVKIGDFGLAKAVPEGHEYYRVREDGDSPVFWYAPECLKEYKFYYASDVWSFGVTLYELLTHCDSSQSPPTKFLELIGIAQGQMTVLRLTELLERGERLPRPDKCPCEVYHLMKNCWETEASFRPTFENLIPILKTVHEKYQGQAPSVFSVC
T2 sequence (O60674 whole entry): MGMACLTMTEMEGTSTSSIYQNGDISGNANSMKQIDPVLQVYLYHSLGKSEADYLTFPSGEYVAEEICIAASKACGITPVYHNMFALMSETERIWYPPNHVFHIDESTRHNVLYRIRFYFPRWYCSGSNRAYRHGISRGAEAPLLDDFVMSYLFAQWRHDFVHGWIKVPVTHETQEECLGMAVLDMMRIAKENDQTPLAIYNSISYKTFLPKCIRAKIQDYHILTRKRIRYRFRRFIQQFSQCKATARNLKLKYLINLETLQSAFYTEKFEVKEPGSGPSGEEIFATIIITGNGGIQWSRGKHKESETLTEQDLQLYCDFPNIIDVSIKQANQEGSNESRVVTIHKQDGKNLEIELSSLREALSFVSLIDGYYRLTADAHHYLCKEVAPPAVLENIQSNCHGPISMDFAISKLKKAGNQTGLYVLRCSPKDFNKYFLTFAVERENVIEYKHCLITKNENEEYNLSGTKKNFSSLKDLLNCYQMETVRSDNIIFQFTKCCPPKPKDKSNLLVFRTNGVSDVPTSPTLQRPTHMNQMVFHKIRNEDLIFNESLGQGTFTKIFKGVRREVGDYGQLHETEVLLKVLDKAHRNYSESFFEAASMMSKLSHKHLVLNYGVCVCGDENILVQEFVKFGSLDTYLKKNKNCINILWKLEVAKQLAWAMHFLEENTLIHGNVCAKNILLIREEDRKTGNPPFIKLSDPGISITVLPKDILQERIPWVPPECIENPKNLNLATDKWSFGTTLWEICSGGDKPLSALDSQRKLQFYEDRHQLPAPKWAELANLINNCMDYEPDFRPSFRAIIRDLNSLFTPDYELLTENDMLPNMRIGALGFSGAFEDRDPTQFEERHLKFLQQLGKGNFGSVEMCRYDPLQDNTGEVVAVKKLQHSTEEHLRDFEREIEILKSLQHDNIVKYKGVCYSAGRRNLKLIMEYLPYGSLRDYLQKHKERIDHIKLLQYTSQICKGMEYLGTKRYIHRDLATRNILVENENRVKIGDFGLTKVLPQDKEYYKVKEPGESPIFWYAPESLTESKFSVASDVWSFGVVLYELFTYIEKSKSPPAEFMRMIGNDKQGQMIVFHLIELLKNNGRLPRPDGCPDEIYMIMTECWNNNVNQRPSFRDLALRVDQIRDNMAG

In the case of `CCS(=O)(=O)N1[C@@H]2CCC[C@H]1C[C@H](N(C)c1nc(CO)c(F)c(Nc3cc(C)[nH]n3)n1)C2` [Compound (I), (2-(((1R,3s,5S)-9-(ethylsulfonyl)-9-azabicyclo[3.3.1]nonan-3-yl)(methyl)amino)-5-fluoro-6-((5-methyl-1H-pyrazol-3-yl)amino)pyrimidin-4-yl)methanol], the Ki (Tyk2) is reported as 0.126 nM, the pCC15 [1] is reported as 5.36 and the Ki (JAK2) is reported as 0.0631 nM. The concentration at 1.5 h [2] was 62 µM and the “concentration at which recovery of IL-22 suppressed Filaggrin expression was observed” value [3] was less than 1 µM.
